14 compounds from patent US8487091B2, “Substituted cyclopentanes having prostaglandin activity” (Allergan, Inc., priority 2008, dated 2013) can be followed below.

By Ki is commonly meant a dissociation constant, usually derived from enzyme kinetics or from competition with a known ligand. Read a high Ki as weaker binding. The term EC50 denotes the concentration giving half of the maximal effect. Low values mean greater potency, high ones weaker potency.

Values joined by “and” are separate entries in the source; they are usually repeats but may differ in a detail not shown here. Equal values may be shown once.

The target of assay [1] is T1, EP2 (Homo sapiens, UniProt P43116). In words: EP2 binding assay. The source says: (§1) United States Patent Application Publication No. 20070129552, describes the methods used to obtain the in vitro data in Table 1 below. The part of that reference which describes the method is incorporated by reference herein.
Assay [2] has as its target T1, EP2. The assay is described as follows: EP2 cAMP functional assay. The assay is classed as cell-based.
Description: as §1

T1 sequence (P43116 whole entry): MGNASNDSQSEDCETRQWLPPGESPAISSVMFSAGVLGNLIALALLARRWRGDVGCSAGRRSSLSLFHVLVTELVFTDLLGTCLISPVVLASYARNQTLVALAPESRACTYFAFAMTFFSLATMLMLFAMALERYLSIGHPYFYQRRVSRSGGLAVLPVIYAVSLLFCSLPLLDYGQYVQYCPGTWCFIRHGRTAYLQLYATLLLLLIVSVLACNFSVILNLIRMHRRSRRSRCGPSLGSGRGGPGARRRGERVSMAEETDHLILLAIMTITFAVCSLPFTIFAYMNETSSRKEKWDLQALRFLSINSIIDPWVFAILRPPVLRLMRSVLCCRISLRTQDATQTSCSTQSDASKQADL

As to `CCC1(C(O)C/C=C/[C@@H]2[C@@H](CCCc3ccc(C(=O)O)s3)CC[C@H]2Cl)CCC1` (stereo partly shown) [Compound 10], at EP2 [1], the Ki is 31 nM and 16 nM. Moreover, the EC50 on EP2 [2] was 17 nM and 7 nM.
At EP2 [1], `CCC1(C(O)C/C=C/[C@H]2C(=O)CC[C@@H]2CCCc2ccc(C(=O)O)s2)CCC1` (stereo partly shown) [Compound 12] came in with an inhibition constant Ki of 86 nM. The compound further had a concentration giving a half-maximal response (EC50) at EP2 [2] of 5.4 nM.
For `CCC1(C(O)CCC[C@H]2C(=O)CC[C@@H]2CCCc2ccc(C(=O)O)s2)CCC1` (stereo partly shown) [Compound 13], in that order: 137 nM and 6.3 nM.
For `CCC1(C(O)C/C=C/C2=CCC[C@@H]2CCCc2ccc(C(=O)O)s2)CCC1` (stereo partly shown) [Compound 16], in that order: 17 nM and 32 nM.
Take `CCC1(C(O)CCCC2C(C#N)CCC2CCCc2ccc(C(=O)O)s2)CCC1` (stereo not shown) [Compound 22]: affinity at EP2 [1] was put at a Ki of 123 nM. Also, the midpoint of the response at EP2 [2], the EC50, lay at 18 nM.
As to `CCC1(C(O)C/C=C/[C@@H]2[C@@H](CCCc3ccc(C(=O)O)s3)CC[C@H]2F)CCC1` (stereo partly shown) [Compound 25], the inhibition constant (Ki) at EP2 [1] was 16 nM and 67 nM. Besides, at EP2 [2], the EC50 is 5.7 nM.
Regarding `CCC1(C(O)CCC[C@@H]2[C@@H](CCCc3ccc(C(=O)O)s3)CC[C@H]2F)CCC1` (stereo partly shown) [Compound 27], at EP2 [1], the inhibitory constant (Ki) is 15 nM and 47 nM. In addition, it took 8.5 nM to reach a half-maximal effect at EP2 [2] (EC50).
For the compound `CCC1(C(O)C/C=C/[C@@H]2[C@@H](CCCc3ccc(C(=O)O)s3)CC[C@@H]2F)CCC1` (stereo partly shown) [Compound 35], on EP2 [1], the affinity corresponds to a Ki of 36 nM. This compound showed an EC50 at EP2 [2] of 23 nM.
The matching figures for `CCC1(C(O)CCC[C@@H]2[C@@H](CCCc3ccc(C(=O)O)s3)CC[C@@H]2F)CCC1` (stereo partly shown) [Compound 37]: 25 nM and 19 nM.
Compound `CCC1(C(O)C/C=C/[C@@H]2[C@@H](CCCc3ccc(C(=O)O)s3)CC[C@@H]2C#N)CCC1` (stereo partly shown) [Compound 41] came in with a Ki at EP2 [1] of 1390 nM. Moreover, the EC50 at EP2 [2] was 129 nM.
The matching figures for `CCC1(C(O)CCCC2C(C#N)CCC2CCCc2ccc(C(=O)O)s2)CCC1` (stereo not shown) [Compound 43]: 516 nM and 54 nM.
Compound `CCC1(C(O)C/C=C/[C@@H]2[C@@H](CCCc3ccc(C(=O)O)s3)CC[C@@H]2Cl)CCC1` (stereo partly shown) [Compound 50] returned a Ki on EP2 [1] of 1170 nM. It took 117 nM to reach a half-maximal effect at EP2 [2] (EC50).
In turn, `CCC1(C(O)CCC[C@@H]2[C@@H](CCCc3ccc(C(=O)O)s3)CC[C@@H]2Cl)CCC1` (stereo partly shown) [Compound 51] had a Ki on EP2 [1] of 377 nM. Moreover, on EP2 [2], a half-maximal response (EC50) required 114 nM.
The matching figures for `CCC1(C(O)CCC[C@@H]2[C@@H](CCCc3ccc(C(=O)O)s3)CC[C@H]2Cl)CCC1` (stereo partly shown) [Compound 67]: 40 nM and 11 nM.
